Source: publication PMC9787607, “A Novel Protocol for the Synthesis of 1,2,4-Oxadiazoles Active against Trypanosomatids and Drug-Resistant Leukemia Cell Lines” (Tropical Medicine and Infectious Disease, 2022)
Where two headings read alike, the source gives them in different places.

What was measured:
[1] = tested on: L. amazonensis promastigotes; assay: Anti-L. amazonensis promastigote assessment (MTT); assay type: cell-based; conditions: Leishmania amazonensis, 48 h, read-out: EC50 L. amazonensis promastigotes
Method: Promastigotes of L. amazonensis (MHOM/BR/75/Josefa) were cultured in Schneider’s insect medium (SIM) with 10% FBS. Parasites were harvested at the stationary growth phase for assessment against promastigotes and 24 h after cultures reached the stationary growth phase for infection assays. […]. Complete SIM media and amphotericin B (AmB) at 10 µM were used as negative and positive controls, respectively. A vehicle control containing SIM with 10% SFB media and 0.3% DMSO was maintained for comparison. The final volume of the experiment was 100 µL. After incubation for 48 h at 27 °C, MTT salt solution in PBS was added (3.0 mM, 20 µL per well). After incubation for 2 h at 27 °C, the MTT formazan was dissolved by adding 120 µL of solubilizing buffer (50% isopropanol, 40% acetate buffer pH 5.4, 10% Triton-X). Absorbance was measured using a microplate reader at 570 nm.
(§1) The percent cell or parasite viability was calculated by the formula: % viability = [(A − P)/(N − P)] × 100, A = absorbance of specific well, P = positive control, N = negative control. Determination of half-maximal effective concentrations (EC50), calculated by logarithmic regression, and significance analysis (p < 0.05), using ANOVA and Dunnett’s test, by GraphPad Prism 7.0 software. The results are expressed as the mean and standard deviation (SD) of three independent experiments.

[2] = tested on: L. amazonensis amastigotes; assay: Anti-L. amazonensis amastigote assessment in RAW 264.7 macrophages; assay type: cell-based, Leishmania amazonensis
Method: RAW 264.7 cells were seeded in a 96-well microplate (2.0 × 10^4 cells per well) in complete DMEM with 5% FBS and incubated for 3 h at 37 °C in 5% CO2 for cell adhesion. The medium was renewed, and L. amazonensis promastigotes (3.0 × 10^5 parasites per well) were added. After 24 h of incubation at 37 °C in 5% CO2, the cell monolayer was washed with PBS to remove noninternalized parasites, the medium was renewed, and compounds were added at a range of concentrations in triplicate (100–1 μM). Untreated infected cells and noninfected RAW 264.7 cells were used as negative and positive controls, respectively. Vehicle control containing DMEM and 0.3% DMSO was maintained for comparison. After incubation for 48 h at 37 °C in 5% CO2, the medium was removed, and a solution containing 0.02% SDS in PBS (20 µL per well) was added. Macrophage lysis and amastigote release were accompanied under an inverted microscope for 10–15 min. SIM with 12.5% SFB (80 µL per well) was added, parasites were allowed to differentiate into promastigotes for 48 h at 27 °C, and an MTT salt solution in PBS was added (3.0 mM, 20 µL per well). After incubation for 2 h at 27 °C, the MTT formazan was dissolved by adding 120 µL of solubilizing buffer (50% isopropanol, 40% acetate buffer pH 5.4, 10% Triton X). Absorbance was measured using a microplate reader at 570 nm.
as §1

RAW 264.7 cells = assay: Cytotoxicity to RAW 264.7 cells (MTT); assay type: cell-based, murine; conditions: Mus musculus, RAW264.7, 48 h, read-out: EC50 RAW
Method: (§2) LLC-MK2 kidney fibroblasts (ATCC) and RAW 264.7 macrophages (ATCC) were cultivated in culture flasks in complete DMEM with 5% FBS at 37 °C in 5% CO2. The LLC-MK2 cell monolayer was detached by treatment with trypsin-EDTA 0.05% for 5 min at 37 °C. The RAW cell monolayer was detached mechanically. In both cases, the cells were centrifuged at 480× g for 6 min and resuspended in complete DMEM with 5% FBS, and the cell density was determined by counting with trypan-blue dye exclusion on Neubauer chambers before use.
RAW 264.7 cells were seeded in a 96-well microplate (2.0 × 10^4 cells per well) in complete DMEM with 5% FBS (120 µL per well). After incubation for 24 h at 37 °C in 5% CO2, the medium was renewed, and compounds were added at a range of concentrations in triplicate (100–1 μM). Untreated cells and cells treated with DMEM and 10% DMSO were used as negative and positive controls, respectively. Vehicle control containing DMEM and 0.3% DMSO was maintained for comparison. After incubation for 48 h at 37 °C in 5% CO2, the medium was renewed, and an MTT solution in PBS was added (3.0 mM, 20 µL per well). After incubation for 2 h at 37 °C in 5% CO2, the supernatant was removed, and MTT formazan was dissolved in DMSO (150 µL per well). Absorbance was measured using a microplate reader at 570 nm.
as §1

[3] = tested on: T. cruzi amastigotes (Tulahuen C2C4 LacZ strain); assay: microbe, parasite or virus in culture; assay type: cell-based, Trypanosoma cruzi; conditions: Trypanosoma cruzi, TULAHUEN; for viability at 50 µM: LLC-MK2, 120 h, screening at 50 μM, 120 h, compared with untreated controls
Method: To a monolayer of 1.0 × 10^7 LLC-MK2 cells in a 150 cm^2 culture flask were added 5.0 × 10^7 trypomastigotes of T. cruzi expressing the […] (Tulahuen C2C4 LacZ) in complete DMEM with 2.5% FBS. The infection was allowed to occur for 24 h, the supernatant was removed, and the cell monolayer was washed with PBS. Complete DMEM with 2.5% FBS was renewed every 2 days up to the sixth day after infection. Trypomastigote forms were collected daily from the supernatant between days 7 and 12 after infection, enriched by differential centrifugation (1500× g for 10 min, 5580× g for 20 min), and resuspended in complete DMEM with 5% FBS. Parasite density was determined by counting the mobile trypomastigotes on Neubauer chambers before use.
. The medium was renewed, and trypomastigote forms of T. cruzi (Tulahuen C2C4 LacZ strain, 2.0 × 10^5 parasites per well) were added. After incubation for 24 h at 37 °C in 5% CO2, the cell monolayer was washed with PBS to remove noninternalized parasites. DMEM without phenol red and 5% FBS was added, and infected cells were treated with compounds at a range of concentrations in triplicate (50 μM or 100–1 μM). Untreated infected cells and noninfected LLC-MK2 cells were used as negative and positive controls, respectively. Vehicle control containing DMEM without phenol red and 0.3% DMSO was maintained for comparison. After incubation for 120 h at 37 °C in 5% CO2, a solution containing […] and 0.8% IGEPAL CA-630 in PBS (30 µL per well), followed by further incubation for 2 h at 37 °C in 5% CO2. Absorbance was measured using a microplate reader at 570 nm.
as §1

LLC-MK2 cells = assay: Cytotoxicity to LLC-MK2 host cells (MTT); assay type: cell-based; conditions: Macaca mulatta, LLC-MK2; 120 h, MTT
Method: as §2
(§3) LLC-MK2 cells were seeded in a 96-well microplate (1.0 × 10^4 cells per well) in complete DMEM with 5% FBS (120 µL per well). After incubation for 24 h at 37 °C in 5% CO2, the medium was renewed, and compounds were added at a range of concentrations in triplicate (50 μM or 100–1 μM). Untreated cells and cells treated with DMEM and 10% DMSO were used as negative and positive controls, respectively. Vehicle control containing DMEM and 0.3% DMSO was maintained for comparison. After incubation for 120 h at 37 °C in 5% CO2, the medium was renewed, and MTT salt solution in PBS was added (3.0 mM, 20 µL per well). After incubation for 2 h at 37 °C in 5% CO2, the supernatant was removed, and MTT formazan was dissolved in DMSO (150 µL per well). Absorbance was measured using a microplate reader at 570 nm.
as §1

T. cruzi epimastigotes = tested on: T. cruzi epimastigotes; set-up: method as in PMID 19517898; conditions: T. cruzi epimastigotes at 50 μM; cited from earlier work
K562 = assay: MTT cytotoxicity to CML cell line K562; assay type: cell-based; conditions: Homo sapiens, 72 h
Method: (§4) The CML cell lines K562, Lucena-1 (K562/VCR), and FEPS (K562/DNR) were cultured in RPMI-1640 medium supplemented with 25 mM HEPES and 2 g L^−1 sodium bicarbonate adjusted to pH 7.4 with NaOH, 100 U penicillin and […] streptomycin. All media were supplemented with 10% FBS. Dr. Vivian M. Rumjanek (Instituto de Bioquímica Médica, UFRJ, Brazil) kindly donated Lucena-1 and FEPS cells. Briefly, K562 cells were exposed to increasing concentrations of the chemotherapeutic drugs vincristine sulfate (VCR) and daunorubicin hydrochloride (DNR) (both from Sigma-Aldrich), as described previously. Lucena-1 (K562/VCR) and FEPS (K562/DNR) cells were cultured in the presence of either 60 nM VCR or 500 nM DNR to maintain the MDR phenotypes. For subcultures, cells were harvested every three days followed by washing with cold FBS, and a final concentration of 2 × 10^4 cells mL^−1 was maintained at 37 °C in 5% CO2.
(§5) Cell viability was determined by the 3-(4,5-dimethylthiazol-2-yl)-2,5-diphenyltetrazolium (MTT) colorimetric assay. CML cells (2 × 10^4 cells·mL^−1) were incubated for 72 h at 37 °C, followed by treatment with compounds at a range of concentrations (100–1 μM). Negative controls were prepared with 0.5% DMSO. An MTT salt solution was added to each well to a final concentration of 0.5 g·L^−1, and plates were incubated at 37 °C in 5% CO2 for 3 h. After centrifugation, 200 μL DMSO was added to dissolve the dark-blue formazan crystals formed by MTT reduction. Absorbance was measured on a microplate reader at 570 nm, which is directly proportional to formazan contents and indicative of living cells.
as §1

Lucena-1 (K562/VCR) = assay: cells; assay type: cell-based, human; conditions: for RR (relative resistance) Lucena-1: (EC50 MDR cells)/(EC50 parental cells), Lucena-1/K562; for EC50: Homo sapiens, Lucena 1, 72 h, read-out: EC50 Lucena-1
Method: as §4, §5, §1

FEPS (K562/DNR) = assay: MTT cytotoxicity to MDR CML cell line FEPS; assay type: cell-based, human; conditions: for RR (relative resistance) FEPS: (EC50 MDR cells)/(EC50 parental cells), FEPS/K562; for EC50: Homo sapiens, K562, 72 h, MTT
Method: as §4, §5, §1

[4] = Cytotoxicity to LLC-MK2 host cells (MTT); assay type: cell-based; conditions: rhesus monkey, LLC-MK2 cells (kidney fibroblasts); screening at 50 μM, 120 h
Method: as §2, §3, §1

[5] = Cytotoxicity to BALB/c mouse total splenocytes (MTT); assay type: cell-based; conditions: male, total splenocytes (primary), 100 μM, 48 h, compared to the untreated control (Table S1)
Method: BALB/c mouse total splenocytes were harvested from male mice between 6–8 weeks old. After euthanasia, the spleens were removed and macerated in DMEM. After centrifugation, the cells were treated with hemolytic ACK buffer at 37 °C for 5 min. […] After incubation for 48 h at 37 °C in 5% CO2, cell viability was determined after the addition of 20 µL per well of a solution containing MTT salt (3.0 mM) and phenazine metasulphate (0.72 mM). After further incubation for 1 h at 37 °C, the medium was removed, and DMSO was added to dissolve the dark-blue formazan crystals formed by MTT reduction. Absorbance was measured on a microplate reader at 570 nm.
as §1

SMILES | EC50 [1] [µM] | EC50 ([2]; Leishmania amazonensis, RAW264.7, 48 h, read-out: EC50 L. amazonensis intracellular amastigotes) [µM] | S.I. (selectivity index) ([2]; host cell/parasite EC50 ratio, RAW/L. amazonensis) | EC50 (RAW 264.7 cells) [µM] | viability at 50 µM [3] [%] | EC50 ([3]; in LLC-MK2, 120 h, read-out: EC50 T. cruzi intracellular amastigotes) [µM] | EC50 (LLC-MK2 cells) [µM] | apoptosis (T. cruzi epimastigotes) [%] | necrosis (T. cruzi epimastigotes) [%] | parasite death (T. cruzi epimastigotes) [%] | EC50 (K562) [µM] | RR (relative resistance) Lucena-1 (Lucena-1 (K562/VCR)) | EC50 (Lucena-1 (K562/VCR)) [µM] | RR (relative resistance) FEPS (FEPS (K562/DNR)) | EC50 (FEPS (K562/DNR)) [µM] | viability at 120 h, 50 µM [4] [%] | EC50 ([1]; MTT) [µM] | viability at 48 h, 100 µM [5] [%] | melting point [°C]
C[C@@H]1[C@H](O)[C@@H](C)/C=C/C=C/C=C/C=C/C=C/C=C/C=C/[C@H](O[C@@H]2O[C@H](C)[C@@H](O)[C@H](N)[C@@H]2O)C[C@@H]2O[C@](O)(C[C@@H](O)C[C@@H](O)[C@H](O)CC[C@@H](O)C[C@@H](O)CC(=O)O[C@H]1C)C[C@H](O)[C@H]2C(=O)O [Amphotericin B, reference compound] | 0.094 ± 0.001 | 0.151 ± 0.022 | 65.2 | 9.8 ± 3.3 | – | – | – | – | – | – | – | – | – | – | – | – | – | – | –
O=C(Cn1ccnc1[N+](=O)[O-])NCc1ccccc1 [Benznidazole, reference compound] | – | – | – | – | 23.2 ± 1.4 | 1.5 ± 0.2 | > 100 | – | – | – | – | – | – | – | – | – | – | – | –
COc1ccc(OC)c(/C=C/C(=O)Nc2nc3ccccc3s2)c1 [Compound 1] | – | – | – | – | – | – | – | 40.2 | 17.9 | 58.1 | – | – | – | – | – | – | – | – | –
COc1cc(-c2noc(/C=C/c3ccccc3)n2)cc(OC)c1OC [Compound 21, (E)-3-(3,4,5-trimethoxyphenyl)-5-[2-phenylvinyl]-1,2,4-oxadiazole] | – | – | – | – | 77.3 ± 2 | – | – | – | – | – | > 100 | <0.69 | 68.6 ± 10.1 | <0.28 | 27.7 ± 5.2 | 88.5 ± 4.7 | > 100 | 76.8 ± 6.6 | 138 to 140
COc1cccc(/C=C/c2nc(-c3cc(OC)c(OC)c(OC)c3)no2)c1 [Compound 22, (E)-3-(3,4,5-trimethoxyphenyl)-5-[2-(3-methoxyphenyl)-vinyl]-1,2,4-oxadiazole] | – | – | – | – | 66.1 ± 2.3 | – | – | – | – | – | > 100 | <0.73 | 72.9 ± 3 | <0.36 | 36.1 ± 12.4 | 87.1 ± 1.7 | > 100 | 63.5 ± 2.4 | 117 to 119
COc1cc(-c2noc(/C=C/c3ccco3)n2)cc(OC)c1OC [Compound 25, (E)-3-(3,4,5-trimethoxyphenyl)-5-[2-(fur-2-yl)vinyl]-1,2,4-oxadiazole] | – | – | – | – | 79.5 ± 5.5 | – | – | – | – | – | 72.8 ± 9.1 | 1.05 | 76.6 ± 6.1 | 0.74 | 53.7 ± 3.6 | 73.5 ± 1.7 | > 100 | 63.7 ± 4.7 | 144 to 146
